“Also recorded” adds a separate entry of the source.
Legend:
MCF-7 cells [1] = assay: Cell cycle analysis by flow cytometry (PI); format: cell-based, human; conditions: 12b 10 µM, harmine 20 µM
Procedure: To gain further insight into the potential mechanism of activity of 12b, and to examine whether and how the cell growth inhibition was associated with cell cycle regulation, we assessed its influence on the cell cycle of MCF-7 cells, 24 and 48 h after the treatment and compared it with the influence of the reference compound harmine (Figure 4).
MCF-7 cells were seeded onto 6-well plates (3 × 10^5 cells per well). After 24 h, 12b was added at 10 µM concentration and harmine at 20 µM concentration. After 24 h or 48 h, the attached cells were trypsinized, combined with floating cells, washed with phosphate buffer saline (PBS), fixed with 70% ethanol, and stored at −20 °C. Immediately before analysis, the cells were washed with PBS and stained with 50 μg/mL of propidium iodide (PI) with the addition of 0.1 μg/μL of RNAse A. The stained cells were then analyzed by BD FACScalibur flow cytometer (20,000 counts were measured). The percentage of cells in each cell cycle phase was determined using FlowJo software (TreeStar Inc., USA). The tests were performed in duplicate and repeated in three separate experiments.

SW620 = assay: MTT cytotoxicity assay, SW620; format: cell-based; conditions: Homo sapiens, SW-620; MTT, 72 h, mean ± SD; read-out: IC50 SW620
From the text: (§1) We selected four different cancer cell lines for antiproliferative screening in vitro, which we believed would provide sufficient data on the anticancer potential of the prepared harmirins (hepatocellular carcinoma—HepG2, colorectal adenocarcinoma, Dukes’ type C—SW620, colorectal carcinoma—HCT116, and breast adenocarcinoma—MCF-7). Additionally, we included one non-cancer cell line (embryonic kidney—HEK293T) to evaluate harmirins’ selectivity. The commonly used anticancer drug 5-FU and harmine were used as positive controls. Pre-screening was performed using 50 µM of the tested compound. Only compounds that led to more than 50% reduction in mitochondrial metabolic activity at 50 µM concentration were selected for further analysis. The selectivity index (SI) for each harmirin was calculated as a fractional ratio between the IC50 values for HEK293T and the cancer cell line MCF-7 or HCT116 since these two cell lines were the most susceptible to harmirins.
(§2) The experiments were carried out on five human cell lines purchased from American Type Culture Collection (ATCC, PO BOX 1549, manassas, VA 20108, USA): HepG2 (hepatocellular carcinoma; ATCC® HB-8065™), SW620 (colorectal adenocarcinoma; ATCC® CCL-227™), HCT116 (colorectal carcinoma ATCC® CCL-247™), MCF-7 (breast adenocarcinoma, ATCC® HTB-22™), and HEK293T (embryonic kidney cells; ATCC® CRL-3216™). All cell lines were cultured as monolayers and maintained in Dulbecco’s modified Eagle medium (DMEM) (Capricorn Scientific, USA), supplemented with 10% fetal bovine serum (FBS) (Capricorn Scientific, USA), 100 U/mL penicillin, and 100 µg/mL streptomycin (Capricorn Scientific, USA) in a humidified atmosphere with 5% CO2 at 37 °C. Cells were seeded in 96-well plates (Corning, Durham, NC, USA) at 5000–7000 cells per well (depending on the cell doubling time of a specific cell line) in 0.1 mL media and cultured for 24 h. The next day, the medium was aspirated, and cells were treated for 72 h. Only the compounds that led to more than a 50% reduction in mitochondrial metabolic activity at a concentration of 50 µM were selected for further analysis. The following concentrations of selected compounds were used: 25, 10, 5, and 1 µM. Working dilutions were freshly prepared on the day of the testing. A fresh growth medium was added to untreated control cells, which were defined as 100% viable. DMSO (0.13%) in DMEM was considered a negative control. 5-Fluorouracil (5-FU) and harmine were used as positive controls. At the end of treatment, media was removed, and cells were incubated for 1 h with 0.5 mg/mL MTT (Abcam, Cambridge, MA, USA) dissolved in serum-deprived DMEM. The absorbance was directly proportional to cell viability. The MTT-containing media was then removed, and 0.1 mL isopropanol was added per well to lyse cells and dissolve formazan. The optical density was measured at 570 nm using a microplate reader (VICTOR3, PerkinElmer). Each test point was performed in triplicate. The IC50 values (concentration required to decrease viability by 50%) were calculated by using nonlinear regression on the sigmoidal dose–response plots and are expressed as mean ± SD.

HCT116 = assay: MTT cytotoxicity assay, HCT116; format: cell-based, human
From the text: as §1, §2

MCF-7 = assay: MTT cytotoxicity assay, MCF-7; format: cell-based, human
From the text: as §1, §2

HEK293T = assay: MTT cytotoxicity assay, HEK293T (non-cancer); format: cell-based, human
From the text: as §1, §2

MCF-7 cells [2] = assay: Cell localization by fluorescence microscopy; format: cell-based, human; conditions: 10 µM, 30 min, MCF-7, DAPI filter
Procedure: We further examined the intracellular distribution of the compound 12b in MCF-7 cells, based on its fluorescence properties. Therefore, we incubated MCF-7 cells for 30 min with the tested compound 12b and analyzed its localization by fluorescence microscopy (Figure 3). No autofluorescence was detected by examining untreated cells under typical imaging conditions.
The MCF-7 cells were seeded on round microscopic coverslips placed in 24-well-plates (5 × 10^4 cells per well) and grown at 37 °C and 5% CO2 for 24 h in DMEM supplemented with FBS, penicillin, and streptomycin, as described above. Cells were then incubated with compound 12b (10 µM) for 30 min. Afterward, the medium was discharged, coverslips rinsed twice with PBS, placed on the microscopic slides, and immediately analyzed. The uptake and intracellular distribution of the tested derivative were analyzed under a fluorescence microscope (Olympus BX51) at 400 × magnification, using a DAPI filter. Images were captured with an Olympus DP70 Digital Camera.

HepG2 = assay: MTT cytotoxicity assay, HepG2; format: cell-based; conditions: Homo sapiens, HepG2; MTT, 72 h, mean ± SD; read-out: IC50 HepG2
From the text: as §1, §2

[3] = after 24 h (12b: persisted after 48 h)

**Q.** With Cc1ccc2oc(=O)cc(-n3cc(COc4ccc5c(c4)[nH]c4c(C)nccc45)nn3)c2c1 [12b, 6-Methyl-4-(4-(((1-methyl-9H-pyrido[3,4-b]indol-7-yl)oxy)methyl)-1H-1,2,3-triazol-1-yl)-2H-chromen-2-one] as the molecule, how does the “accumulation of cells in the subG1 phase (apoptotic cells)” value (MCF-7 cells [1]; 48 h, data not shown) read?
**A.** up to 10%

**Q.** And the “effect on G1 phase of cell cycle” value (MCF-7 cells [1]; [3])?
**A.** strong G1 arrest

**Q.** And the “effect on percentage of cells in S phase” value (MCF-7 cells [1]; [3])?
**A.** reduced the percentage of cells in the S phase; also recorded: drastic reduction in the percentage of cells in the S phase

**Q.** And the IC50 (SW620)?
**A.** 20.8 ± 0.4 µM

**Q.** What about the IC50 (HCT116; Homo sapiens, HCT-116, MTT, 72 h, mean ± SD, read-out: IC50 HCT116) of the same molecule?
**A.** 4.7 ± 0.6 µM

**Q.** And the “SI (HCT116)” value (HCT116; ratio IC50 HEK293T / IC50 HCT116)?
**A.** >10.6

**Q.** What about the melting point of the same molecule?
**A.** 225.5 to 229.5 °C (dec.)

**Q.** And the IC50 (MCF-7; Homo sapiens, MCF7, MTT, 72 h, mean ± SD, read-out: IC50 MCF-7)?
**A.** 6.9 ± 0.7 µM

**Q.** And the “activity against MCF-7, fold stronger than 5-FU” value (MCF-7; compared with 5-FU IC50)?
**A.** 3.4 fold

**Q.** And the “activity against MCF-7, fold higher than harmine” value (MCF-7; compared with harmine IC50)?
**A.** twofold

**Q.** What about the “SI (MCF-7)” value (MCF-7; ratio IC50 HEK293T / IC50 MCF-7) of the same molecule?
**A.** >7.2

**Q.** And the IC50 (HEK293T; Homo sapiens, HEK-293T, MTT, 72 h, mean ± SD, non-cancer cell line, read-out: IC50 Hek293T)?
**A.** > 50 µM

**Q.** And the “SIs (selectivity towards cancer cells in comparison to HEK293T)” value (HEK293T; cancer cell line not specified (MCF-7 or HCT116))?
**A.** > 7.2

**Q.** What about the intracellular distribution (MCF-7 cells [2]) of the same molecule?
**A.** predominantly cytoplasmic distribution; also recorded: localized exclusively in the cytoplasm; also recorded: localization within the cytoplasm, but not within the nucleus

**Q.** And the IC50 (HepG2)?
**A.** 19.5 ± 1.5 µM

From PMC8587047, “Synthesis and Biological Evaluation of Harmirins, Novel Harmine–Coumarin Hybrids as Potential Anticancer Agents” (Molecules, 2021)
